From patent publication US4238496A, “4-Substituted thiazolyl-2-oxamic acids and salts and esters thereof” (Boehringer Ingelheim GmbH, priority 1978, dated 1980)
Counter-ions that a name gives are not always drawn. Like-named read-outs stand apart in the source and are kept apart here.

Test system: Passive Cutaneous Anaphylaxis
Test: Passive Cutaneous Anaphylaxis test (PCA) in rats
Format: in vivo
Conditions: Rattus norvegicus, read-out: ED50 (dose reducing the size of the blued area by 50%)
Method: The compounds of the present invention, that is, those embraced by formula I and their non-toxic, pharmacologically acceptable salts, have useful pharmacodynamic properties.
The anti-allergic properties were ascertained in rats by the Passive Cutaneous Anaphylaxis test (PCA) essentially as described by Goose and Blair (Immunology 16: 749-760,1969). Rat serum was diluted so that the skin reactions with diameters between 10 and 15 mm in unsensitized rats were produced. The PCA test was performed in duplicate by injecting 0.1 ml of this antiserum dilution on each side of the shaved back of rats. Rats so treated were injected intravenously (i.v.) twenty-four hours later with 5 mg ovalbumin in 0.5 ml of 2% Evans Blue and the test substance to be tested by the i.v. route. In the case of substances tested orally, the i.v. ovalbumin challenge was 0.015 mg in the 0.5 ml of 2% Evans Blue solution administered 20-30 minutes after the oral administration of the test substance. Thirty minutes after challenge the rats were killed by CO2 asphyxiation and the skin reflected the diameters, in millimeters, of the blued areas were measured and the mean diameter determined. The circular area was calculated and the mean area in square millimeters of the control group was considered as 100% and the results of the compound test groups were expressed as a percentage change from these control values. From dose response curves the dose reducing the size of the blued area by 50% (ED50) was estimated.

[1] = iv, test substance given i.v. with 5 mg ovalbumin in 0.5 ml of 2% Evans Blue
[2] = p.o., 0.015 mg ovalbumin i.v. challenge 20-30 minutes after oral administration

`COc1ccc(-c2csc(NC(=O)C(=O)O)n2)c(OC)c1` [4-(2',4'4'-dimethoxy-phenyl)-thiazolyl-2-oxamic acid] gave an ED50 [1] of 0.39 mg/kg.

Work on `COc1ccc(OC)c(-c2csc(NC(=O)C(=O)O)n2)c1` [4-(2',5'-dimethoxy-phenyl)-thiazolyl-2-oxamic acid ethanolamine salt] yielded an ED50 [1] of 0.4 mg/kg.

`COc1ccccc1-c1csc(NC(=O)C(=O)O)n1` [4-(2'-Methoxy-phenyl)-thiazolyl-2-oxamic acid] was tested, and the ED50 [1] was 1.08 mg/kg.

Compound `CN(C)c1cccc(-c2csc(NC(=O)C(=O)O)n2)c1` [4-(3' -dimethylamino-phenyl)-thiazolyl-2-oxamic acid ethanolamine salt] has an ED50 [1] of 0.34 mg/kg and an ED50 [2] of 1.06 mg/kg.

`COc1ccc(-c2csc(NC(=O)C(=O)O)n2)cc1OC` [4-(3',4'-dimethoxy-phenyl)-thiazolyl-2-oxamic acid] gave an ED50 [1] of 0.13 mg/kg.

For `COc1cccc(-c2csc(NC(=O)C(=O)O)n2)c1` [4-(3'-methoxy-phenyl)-thiazolyl-2-oxamic acid], the ED50 [1] was 0.16 mg/kg and the ED50 [2] was 2 mg/kg.

`CN(C)c1ccc(-c2csc(NC(=O)C(=O)O)n2)cc1` [4-(4'-dimethylamino-phenyl)-thiazolyl-2-oxamic acid] gave an ED50 [1] of 0.02 mg/kg and an ED50 [2] of 0.34 mg/kg.

In the case of `O=C(O)C(=O)Nc1nc(-c2ccc3c(c2)OCCO3)cs1` [4-(benzodioxanyl)-thiazolyl-2-oxamic acid ethanolamine salt], the ED50 [1] was 0.02 mg/kg and the ED50 [2] was 0.7 mg/kg.

For `O=C(O)C(=O)Nc1nc(-c2cccnc2)cs1` [4-[pyridyl-(3')]-thiazolyl-2-oxamic acid ethanolamine salt], the ED50 [1] was 0.16 mg/kg.

`O=C(O)C(=O)Nc1nc(-c2ccncc2)cs1` [4-[pyridyl-(4')]-thiazolyl-2-oxamic acid ethanolamine salt] was tested, and the ED50 [1] was 0.05 mg/kg.

For `Cc1sc(NC(=O)C(=O)O)nc1-c1ccccc1` [4-phenyl-5-methyl-thiazolyl-2-oxamic acid], the ED50 [1] was 0.19 mg/kg and the ED50 [2] was 2.04 mg/kg.

`CCOC(=O)C(=O)Nc1nc(-c2ccc(O)c(C)c2)cs1` [Ethyl 4-(3'-methyl-4'-hydroxy-phenyl)-thiazolyl-2-oxamate] showed an ED50 [2] of 2.1 mg/kg.

In the case of `CCOC(=O)C(=O)Nc1nc(-c2ccc(OCC)cc2)cs1` [Ethyl 4-(4'-ethoxy-phenyl)-thiazolyl-2-oxamate], the ED50 [2] was 2.07 mg/kg.

Compound `CCOC(=O)C(=O)Nc1nc(-c2ccncc2)cs1` [Ethyl 4-[pyridyl-($')]-thiazolyl-2-oxamate] has an ED50 [2] of 1.2 mg/kg.

Compound `COC(=O)C(=O)Nc1nc(-c2ccc(OC)c(OC)c2)cs1` [Methyl 4-(3',4'-dimethoxy-phenyl)-thiazolyl-2-oxamate] has an ED50 [2] of 1.2 mg/kg.
